# Molecular target: T1, Metabotropic glutamate receptor 2 (Homo sapiens, UniProt Q14416)
# Assay: Allosteric modulation of human mGluR2 expressed in CHO cells by [35S]GTPgammaS binding assay
# Format: functional, cell-based
# Target sequence in this assay (Q14416 whole entry): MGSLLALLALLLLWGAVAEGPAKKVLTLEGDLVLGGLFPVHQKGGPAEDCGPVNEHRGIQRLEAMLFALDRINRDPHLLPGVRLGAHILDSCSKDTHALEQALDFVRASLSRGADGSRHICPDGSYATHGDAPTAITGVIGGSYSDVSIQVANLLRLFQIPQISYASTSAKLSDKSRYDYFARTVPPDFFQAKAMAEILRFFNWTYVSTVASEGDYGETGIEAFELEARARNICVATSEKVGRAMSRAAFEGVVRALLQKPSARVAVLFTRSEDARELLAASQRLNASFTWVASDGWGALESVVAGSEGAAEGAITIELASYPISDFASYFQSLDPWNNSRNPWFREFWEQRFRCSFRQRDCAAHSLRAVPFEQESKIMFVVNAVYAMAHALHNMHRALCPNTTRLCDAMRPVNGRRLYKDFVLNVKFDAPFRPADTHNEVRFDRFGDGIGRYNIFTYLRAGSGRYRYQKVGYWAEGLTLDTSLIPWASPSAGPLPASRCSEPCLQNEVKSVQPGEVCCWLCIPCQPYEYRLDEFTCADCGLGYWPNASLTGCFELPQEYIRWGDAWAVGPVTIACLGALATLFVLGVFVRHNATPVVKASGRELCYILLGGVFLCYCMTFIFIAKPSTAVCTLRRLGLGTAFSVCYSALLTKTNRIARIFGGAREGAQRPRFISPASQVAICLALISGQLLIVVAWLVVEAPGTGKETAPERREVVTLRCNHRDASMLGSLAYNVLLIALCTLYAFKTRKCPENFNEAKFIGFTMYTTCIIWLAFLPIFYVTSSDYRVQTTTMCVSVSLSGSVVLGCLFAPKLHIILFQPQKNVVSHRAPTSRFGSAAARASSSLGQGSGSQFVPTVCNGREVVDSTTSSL
row,SMILES,EC50 [µM]
1,N#Cc1c(N2CCN(c3ccccc3)CC2)ccn2c(-c3ccccc3)cnc12,> 3.16
2,CCc1cnc2c(C#N)c(N3CCN(c4ncccn4)CC3)ccn12,> 3.16
3,CCCc1cnc2c(C#N)c(N3CCN(c4ncccn4)CC3)ccn12,> 3.16

# Molecular target: T1, Metabotropic glutamate receptor 2
# Assay: Allosteric modulation of human mGluR2 expressed in CHO cells by [35S]GTPgammaS binding assay relative to glutamate
# Format: functional, cell-based
# Target sequence in this assay (Q14416 19-872 limits assumed): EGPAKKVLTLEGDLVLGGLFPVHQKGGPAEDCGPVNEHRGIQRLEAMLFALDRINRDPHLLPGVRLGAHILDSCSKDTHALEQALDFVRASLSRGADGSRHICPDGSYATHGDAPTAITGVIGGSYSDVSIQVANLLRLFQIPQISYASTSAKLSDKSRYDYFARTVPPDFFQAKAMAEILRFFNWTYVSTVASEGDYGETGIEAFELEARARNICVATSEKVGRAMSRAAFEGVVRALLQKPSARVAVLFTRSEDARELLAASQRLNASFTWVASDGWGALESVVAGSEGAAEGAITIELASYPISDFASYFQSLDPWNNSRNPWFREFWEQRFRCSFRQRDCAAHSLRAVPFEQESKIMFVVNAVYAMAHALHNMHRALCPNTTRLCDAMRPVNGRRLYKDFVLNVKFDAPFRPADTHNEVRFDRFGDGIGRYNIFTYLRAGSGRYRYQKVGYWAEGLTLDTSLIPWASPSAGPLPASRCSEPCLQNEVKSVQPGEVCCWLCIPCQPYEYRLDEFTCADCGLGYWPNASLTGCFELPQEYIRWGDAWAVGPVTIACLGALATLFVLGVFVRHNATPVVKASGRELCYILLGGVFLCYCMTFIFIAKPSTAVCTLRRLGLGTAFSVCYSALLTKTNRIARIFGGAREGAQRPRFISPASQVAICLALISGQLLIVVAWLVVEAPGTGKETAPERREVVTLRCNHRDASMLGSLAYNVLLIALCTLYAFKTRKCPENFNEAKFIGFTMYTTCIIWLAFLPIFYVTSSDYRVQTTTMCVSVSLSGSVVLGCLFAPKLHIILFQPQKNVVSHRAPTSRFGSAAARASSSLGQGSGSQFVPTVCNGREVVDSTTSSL
row,SMILES,Emax [%]
1,N#Cc1c(N2CCN(c3ncccn3)CC2)ccn2c(CC(F)(F)F)cnc12,231
2,Cc1c(OCc2cccc(-c3ccc(C(=O)O)cc3)c2)cc2c(c1C)C(=O)C(C1CCCC1)C2 (centres undefined),213
3,CCCCn1ccc(N2CCN(c3nc(C)cc(C)n3)CC2)c(C#N)c1=O,235
4,CC(C)(C)c1ccc(-c2ccn3c(CC(F)(F)F)cnc3c2C#N)cc1,272
5,N#Cc1c(N2CCN(c3ccccc3)CC2)ccn2c(-c3ccccc3)cnc12,73
6,N#Cc1c(-c2ccc(OCc3ccccc3)cc2)ccn2c(CC(F)(F)F)cnc12,222
7,N#Cc1c(N2CCN(c3ncccn3)CC2)ccn2c(CCC3CC3)cnc12,229
8,CCc1cnc2c(C#N)c(N3CCN(c4nc(C)cc(C)n4)CC3)ccn12,142
9,N#Cc1c(-c2ccc(NC3CC3)c(Cl)c2)ccn2c(CC(F)(F)F)cnc12,187
10,CCc1cnc2c(C#N)c(N3CCN(c4ncccn4)CC3)ccn12,214
11,N#Cc1c(-c2ccc(N3CCCCC3)cc2)ccn2c(CC(F)(F)F)cnc12,123
12,CCCc1cnc2c(C#N)c(N3CCN(c4ncccn4)CC3)ccn12,248
13,CCCc1cnc2c(C#N)c(N3CCN(c4ccccc4)CC3)ccn12,241
14,Cc1cc(C)nc(N2CCN(c3ccn4c(CC(F)(F)F)cnc4c3C#N)CC2)n1,128
15,N#Cc1c(-c2ccc(Oc3ccccc3)cc2)ccn2c(CC(F)(F)F)cnc12,200
16,CCCc1cnc2c(C#N)c(N3CCN(c4nc(C)cc(C)n4)CC3)ccn12,179

# — ChEMBL document CHEMBL1153142, “Scaffold hopping from pyridones to imidazo[1,2-a]pyridines. New positive allosteric modulators of metabotropic glutamate 2 receptor” (Bioorg Med Chem Lett, 2010)
